From PMC12775434, “Ultra-large virtual screening unveils potent agonists of the neuromodulatory orphan receptor GPR139” (Nature Communications, 2025)
Values joined by “and” are separate entries in the source; they are usually repeats but may differ in a detail not shown here. Equal entries are not always repeated.

Tests used:
[1] = target: T1, GPR139 (Gi3 activation) (Homo sapiens, UniProt Q6DWJ6); assay: BRET G protein activation (dissociation) assay, Gi3, HEK293A; format: cell-based; settings: for G protein activation, Gi3: individual replicates
T1 construct: expressed in transfected cells; host or cells: HEK293A (transient, Lipofectamine 2000)
T1 sequence (Q6DWJ6 1-353): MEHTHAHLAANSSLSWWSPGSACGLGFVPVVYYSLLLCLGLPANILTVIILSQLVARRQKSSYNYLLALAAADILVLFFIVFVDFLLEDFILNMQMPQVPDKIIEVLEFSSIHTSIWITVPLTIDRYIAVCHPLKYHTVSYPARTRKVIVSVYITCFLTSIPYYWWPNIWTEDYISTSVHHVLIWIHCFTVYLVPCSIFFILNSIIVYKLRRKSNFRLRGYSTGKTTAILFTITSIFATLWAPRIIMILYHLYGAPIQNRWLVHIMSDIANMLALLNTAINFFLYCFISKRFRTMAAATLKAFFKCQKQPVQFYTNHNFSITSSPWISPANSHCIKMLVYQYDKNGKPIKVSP
Protocol: (§1) Primary screening and pharmacological characterization of compounds were performed using a CHO-K1 cell line that stably expresses human GPR139 (GPR139-CHOk1). The GPR139-CHOk1 cell line was kindly provided by H. Lundbeck A/S, Denmark[24]. GPR139-CHOk1 cells were grown in Ham’s F-12 Kaighn’s Modification Medium (ThermoFisher #21127030) supplemented with 10% dialyzed fetal bovine serum (US origin, ThermoFisher #26400044), 100 units/mL Penicillin-Streptomycin (ThermoFisher #15140122), and 1 mg/mL Geneticin (ThermoFisher #11811031). […] M1R-CHOk1 cells were purchased from The Missouri S&T cDNA Resource Center (#CEM100TN00). M1R-CHOk1 cells were grown in Ham’s F12 Medium (ThermoFisher #21765029) supplemented with 10% fetal bovine serum (Brazilian origin, ThermoFisher #10270106), 100 units/mL Penicillin-Streptomycin, and 0.25 mg/mL Geneticin. HEK293A cells transiently transfected with GPR139 were used for additional pharmacological assessment of signaling pathways activated by GPR139. HEK239A cells were generously provided by Dr. Asuka Inoue, Tohoku University, Japan. HEK293A cells were grown in Dulbecco’s Modified Eagle Medium (ThermoFisher #31966047) supplemented with 10% dialyzed fetal bovine serum and 100 units/mL Penicillin-Streptomycin. Cell lines were maintained at 37 °C in humidified incubator equilibrated with 5% CO2.
(§2) The G protein dissociation assay developed by the lab of Kirill A. Martemyanov was used to measure the coupling of multiple G proteins by GPR139[57]. The assay was performed as described previously with minor modifications. HEK293A cells were reverse transfected 20–24 h prior to assay. 50,000 cells were plated in each well of white opaque tissue culture treated 96-well plates (PerkinElmer #6005680) previously coated with poly-D-lysine. Transfection solutions were prepared as described, and 10 µL transfection solution was mixed with 100 µL cells in each well. The cells in each well were transfected with 18.9 ng GPR139, 6.3 ng Venus 1-155 Gγ2, 6.3 ng Venus 159-239 Gβ1, 6.3 ng masGRK3ct-NanoLuc and 12.6 ng Gαi2, 12.6 ng Gαi3, 12.6 ng GαoA, 12.6 ng Gαq or 25.2 ng Gα12 using 375 nL Lipofectamine 2000 Transfection Reagent. Transfections with Gαq and Gα12 contained 6.3 ng DNA of the active subunit S1 of pertussis toxin (PTX-S1). Each transfection was normalized to 150 ng total DNA with pcDNA3.1. The BRET biosensors were a kind gift from the Martemyanov lab. On the day of the experiment the cells were washed with HEPES buffer. Test compounds were diluted in HEPES buffer from DMSO stocks (final DMSO concentration of maximally 0.3%). NanoLuc Luciferase substrate NanoGlo—furimazine (Promega #N1120) was diluted 1000-fold (final) in HEPES buffer. NanoGlo and test compounds were added, and measurements were performed after 10 s for Gi3, 15 s for Gi2 and GoA, 20 s for Gq, and 90 s for G12—the timepoint where maximal signal occurred with each G protein, ensuring proper determination of the potency for the G protein coupling. Simultaneous dual emission was measured at 535 nm and 475 nm on LUMIstar Omega Microplate Reader (BMG Labtech) at room temperature. The BRET ratio of 535 nm/475 nm (Venus/NanoLuc), reflecting the dissociation of the G protein heterotrimer, was used to determine the G protein activation. The basal BRET ratio obtained with buffer condition was subtracted from the absolute BRET ratio at a given test compound concentration, and the responses were normalized to the one obtained with 10 µM JNJ-63533054 for the activation of Gi2.
(§3) Pharmacological data and statistical analyses were performed in GraphPad Prism v9–10 (Graphpad Software Inc., San Diego, CA), which are also specifically described in the figure and table legends. […]

[2] = target: T2, GPR139 (G12 activation) (Homo sapiens, UniProt Q6DWJ6); assay: BRET G protein activation (dissociation) assay, G12, HEK293A; format: cell-based; settings: for G protein activation, G12: individual replicates
T2 construct: expressed in transfected cells; host or cells: HEK293A (transient, Lipofectamine 2000)
T2 sequence (Q6DWJ6 1-353): T1 sequence (Q6DWJ6 1-353)
Protocol: as §1, §2, §3

[3] = HEK293-A, normalized to JNJ-63533054 (JNJ(S))

## Cc1cscc1-c1nc(CC(=O)N[C@H](C)c2ccccc2)no1 [1.1(R)]
[1]; [3]
  Emax: 37 ± 1%
[1]; Supplementary Table 6, read-out: pEC50 Gi3 (converted)
  EC50: 794 nM
[1]; log [compound] M -4.5
  G protein activation, Gi3: 39 % of JNJ-63533054 at Gi2 and 35 % of JNJ-63533054 at Gi2 and 34 % of JNJ-63533054 at Gi2
[1]; log [compound] M -5.0
  G protein activation, Gi3: 33 % of JNJ-63533054 at Gi2 and 34 % of JNJ-63533054 at Gi2 (2×)
[1]; log [compound] M -5.5
  G protein activation, Gi3: 30 % of JNJ-63533054 at Gi2 (2×) and 24 % of JNJ-63533054 at Gi2
[1]; log [compound] M -6.0
  G protein activation, Gi3: 21 % of JNJ-63533054 at Gi2 and 22 % of JNJ-63533054 at Gi2 and 20 % of JNJ-63533054 at Gi2
[1]; log [compound] M -6.5
  G protein activation, Gi3: 11 % of JNJ-63533054 at Gi2 (2×) and 12 % of JNJ-63533054 at Gi2
[1]; log [compound] M -7.0
  G protein activation, Gi3: 1 % of JNJ-63533054 at Gi2 and 4.71 % of JNJ-63533054 at Gi2 and 3.32 % of JNJ-63533054 at Gi2
[1]; log [compound] M -7.5
  G protein activation, Gi3: -0.169 % of JNJ-63533054 at Gi2 and 1.37 % of JNJ-63533054 at Gi2 and 5.42 % of JNJ-63533054 at Gi2
[1]; log [compound] M -8.0
  G protein activation, Gi3: -2.27 % of JNJ-63533054 at Gi2 and 2 % of JNJ-63533054 at Gi2 and 10 % of JNJ-63533054 at Gi2
[2]; [3]
  Emax: 51 ± 4%
[2]; Supplementary Table 6, read-out: pEC50 G12 (converted)
  EC50: 794 nM
[2]; log [compound] M -4.5
  G protein activation, G12: 43 % of JNJ-63533054 at Gi2 and 44 % of JNJ-63533054 at Gi2 and 51 % of JNJ-63533054 at Gi2
[2]; log [compound] M -5.0
  G protein activation, G12: 42 % of JNJ-63533054 at Gi2 and 36 % of JNJ-63533054 at Gi2 and 51 % of JNJ-63533054 at Gi2
[2]; log [compound] M -5.5
  G protein activation, G12: 35 % of JNJ-63533054 at Gi2 and 29 % of JNJ-63533054 at Gi2 and 39 % of JNJ-63533054 at Gi2
[2]; log [compound] M -6.0
  G protein activation, G12: 31 % of JNJ-63533054 at Gi2 and 23 % of JNJ-63533054 at Gi2 and 34 % of JNJ-63533054 at Gi2
[2]; log [compound] M -6.5
  G protein activation, G12: 19 % of JNJ-63533054 at Gi2 and 12 % of JNJ-63533054 at Gi2 and 22 % of JNJ-63533054 at Gi2
[2]; log [compound] M -7.0
  G protein activation, G12: 6 % of JNJ-63533054 at Gi2 and 6.57 % of JNJ-63533054 at Gi2 and 15 % of JNJ-63533054 at Gi2
[2]; log [compound] M -7.5
  G protein activation, G12: 3 % of JNJ-63533054 at Gi2 and 4 % of JNJ-63533054 at Gi2 and 9 % of JNJ-63533054 at Gi2
[2]; log [compound] M -8.0
  G protein activation, G12: -4.59 % of JNJ-63533054 at Gi2 and 2 % of JNJ-63533054 at Gi2 and 6 % of JNJ-63533054 at Gi2
